The values that follow come from patent US8450354B2, “Substituted imidazo[1,2-b]pyridazine derivatives, pharmaceutical compositions, and methods of use as β-secretase inhibitors” (High Point Pharmaceuticals, LLC, priority 2010, dated 2013).

The nature of assay [1]: Aβ Cell Based Assay (Aβ1-40 secretion, ELISA). Set-up: species or system human. The settings on record: Homo sapiens, HEK293; HEK-APPwt cells, 6 hours incubation, reduction of Aβ1-40 secretion; asterisk = mean. The method, then:
Aβ Cell Based Assay Procedure
In the following assay, the proteolytic activity of BACE in cells exposed to varying concentrations of a compound of interest is measured by observing the amount of Aβ1-40 secreted from HEK293 cells (Human Embryonic Kidney epithelial cell line) stably expressing wildtype human APP695 protein (HEK-APPwt cells).
HEK-APPwt cells were grown in high glucose DMEM (Dulbecco's Modified Eagles Medium SIGMA Cat. #D5796) supplemented with 25 mM HEPES (4-(2-hydroxyethyl)-1-piperazineethanesulfonic acid) (pH 7.4) (Invitrogen Cat. #15630-114), 0.1 mM NEAA (Non-essential Amino Acids) (BioWhittaker Cat. #13-114E), 10% fetal bovine serum (SIGMA Cat. #F4135) and 250 μg/mL hygromycin (Invitrogen Cat. #10687-010) in T-225 flasks at 37° C. with 5% CO2 and humidity control.
Test compounds were initially prepared in DMSO and diluted with DMEM media containing 2% FBS (Fetal bovine serum). Ten standard compound solutions were prepared having a range of concentrations. The standard compound solutions were used to determine the EC50 of the test compound. The range of concentrations chosen may depend on the compound's predicted potency.
To prepare cells for the assay, a flask containing HEK-APPwt cells were trypsinized briefly (1 mL trypsin), and once the cells detached, 4 mL of 10% FBS-DMEM was added to the flask. The detached cells were centrifuged at 900 rpm for 5 min to form a pellet.
The HEK-APPwt cell pellet was re-suspended with 10 mL DMEM media containing 2% FBS. 80 μL of the cell suspension was added to each well of a 96-well cell culture plate to give 100×10^4 cells/ml. 10 μL of a standard compound solution was added to each well of the 96-well cell culture plate followed by 10 μL of Alamar blue solution. The cells were incubated at 37° C. in a 5% CO2 incubator for 6 hours.
At the end of the incubation, the plates were removed from incubator, and the supernatant was collected. Aβ1-40 concentration in the medium was measured by using a commercial Aβ1-X ELISA kit (IBL, Japan Cat. #27729). Briefly, the ELISA plates were coated with an anti-human Aβ (N)(82E1) mouse IgG monoclonal antibody. A horseradish peroxidase conjugated anti-human Aβ11-28 mouse IgG monoclonal antibody was used for detection. The cell culture supernatant was diluted with EIA buffer+protease inhibitors (kit buffer containing protease inhibitors (1 mL PI/30 mL buffer)). A 100 μL aliquot of the diluted supernatant was added to each well of the ELISA plate and incubated for 6 hrs at 4° C. The ELISA plate was washed 8 times with phosphate buffered saline (PBS) containing 0.05% TWEEN 20.
A 100 μL of detection antibody was then added and incubated for 1 hour at 4° C. The plate was washed 8 times with PBS buffer containing 0.05% Tween 20 followed by addition of 100 μL of the chromogen tetramethylbenzidine (TMB). The plate was incubated in the dark at room temperature for about 30 min and a stop solution (1N H2SO4) was added.
The intensity of the color developed was measured at 450 nm. The optical density at 450 nm (OD450) is proportional to the concentration of human Aβ1-40 secreted by the cell. As a reference, N—[N-(3,5-difluorophenacetyl-L-alanyl)]—S-phenylglycine t-butyl ester (DAPT, a γ-secretase inhibitor) was used to indicate 100% inhibition of […]. Thus, the assay measures the ability of a compound of interest to reduce Aβ1-40 secretion. Compound potency is reported in Table 3 as the EC50 by calculating the percent inhibition at all concentration levels and the data were fit with non-linear curve fitting algorithm using GraphPad Prism.

Another assay concerns the target T1, BACE-1 enzyme (Homo sapiens, UniProt P56817).
T1 construct: purchased R & D Systems 931AS
The assay can be described thus: BACE Fluorescence Resonance Energy Transfer (FRET) Assay. It counts as biochemical. The settings on record: pH 4-4.5, 30 min pre-incubation, about 1.5 hours reaction, asterisk = mean. The method, then: BACE Fluorescence Resonance Energy Transfer (FRET) Assay
In the following assay, the proteolytic activity of BACE is measured by observing cleavage of a fluorescent group from a peptide substrate containing a rhodamine fluorescent donor and a quenching acceptor.
The inhibitory activity of compounds of Formula (I) may be compared to a statine derived control inhibitor STA200 (MP Biomedical Cat. #STA-200). The cleavage reaction occurs when a BACE-1 substrate (Invitrogen, Cat. #P2986) was added to a reaction mixture containing BACE-1 enzyme (R & D Systems, Cat. #931AS) and allowed to proceed for about 1.5 hours. Fluorescence, used as a marker of BACE activity, is monitored using 540 nm excitation and 585 nm emission wavelengths (Envision, Perkin Elmer).
A typical assay reaction contains BACE-1 enzyme-in assay buffer (50 mM sodium acetate, pH 4-4.5, 0.01% CHAPS (3-[(3-Cholamidopropyl)dimethylammonio]-1-propanesulfonate), 0.0125% TritonX-100, 0.006% EDTA) which is pre-incubated for 30 minutes with test compound in 7.5% DMSO. The reaction is initiated with the addition of BACE-1 substrate in assay buffer and allowed to proceed for about 1.5 hours at room temperature. Assays are conducted in black 384-well microtiter plates and scanned at room temperature using 540 nm excitation and 585 nm emission wavelengths.
In some instances, the percent inhibition at a given concentration is reported instead of the IC50.

T1 sequence (P56817 46-457 limits assumed): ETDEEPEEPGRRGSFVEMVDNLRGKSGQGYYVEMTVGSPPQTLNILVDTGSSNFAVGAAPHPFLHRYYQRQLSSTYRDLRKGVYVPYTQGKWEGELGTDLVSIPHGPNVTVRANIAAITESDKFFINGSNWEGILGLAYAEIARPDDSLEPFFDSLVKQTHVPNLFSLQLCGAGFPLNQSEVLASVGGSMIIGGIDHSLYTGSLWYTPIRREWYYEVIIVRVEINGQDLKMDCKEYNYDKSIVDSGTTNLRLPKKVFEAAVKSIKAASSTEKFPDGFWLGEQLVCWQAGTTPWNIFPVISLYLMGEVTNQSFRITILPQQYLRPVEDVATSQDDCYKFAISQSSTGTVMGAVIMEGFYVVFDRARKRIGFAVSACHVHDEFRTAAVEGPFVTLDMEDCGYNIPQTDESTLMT

For the molecule `C[C@H](O)COc1ccc2nc(C(=O)Nc3nc4cc(-c5ccc(C(F)(F)F)c(Cl)c5)ccc4[nH]3)cn2n1` [Example 123, 6-((S)-2-Hydroxy-propoxy)-imidazo[1,2-b]pyridazine-2-carboxylic acid [5-(3-chloro-4-trifluoromethyl-phenyl)-1H-benzoimidazol-2-yl]-amide], a half-maximal effect in assay [1] (EC50) was put at 0.12 µM. Moreover, on BACE-1 enzyme, half-maximal inhibition (IC50) was put at 0.372 µM.

As for `CC[C@H](O)COc1ccc2nc(C(=O)Nc3nc4cc(-c5cc(F)cc(Cl)c5)ccc4[nH]3)cn2n1` [Example 106], the EC50 (usually the midpoint of the concentration-response curve) in assay [1] was found to be 0.86 µM. For the same molecule, inhibition at BACE-1 enzyme was half-maximal at 0.139 µM (IC50).

Take `C[C@H](O)[C@@H](C)Oc1ccc2nc(C(=O)Nc3nc4cc(-c5cccc(C(F)(F)F)c5)ccc4[nH]3)cn2n1` [Example 99]: the EC50 in assay [1] amounted to 0.78 µM. Further, the concentration for half-maximal inhibition (IC50) (commonly the concentration that inhibits the measured activity by half) at BACE-1 enzyme is 0.189 µM.

Consider `O=C(Nc1nc2cc(-c3cc(F)cc(Cl)c3)ccc2[nH]1)c1cn2nc(OCC3(CO)CC3)ccc2n1` [Example 104], for which a half-maximal response in assay [1] (EC50) required 0.33 µM. The same molecule yielded an IC50 against BACE-1 enzyme of 0.277 µM.

`O=C(Nc1nc2cc(-c3ccc(F)c(Cl)c3)ccc2[nH]1)c1cn2nc(OCCO)ccc2n1` [Example 131, 6-(2-Hydroxy-ethoxy)-imidazo[1,2-b]pyridazine-2-carboxylic acid [5-(3-chloro-4-fluoro-phenyl)-1H-benzoimidazol-2-yl]-amide] displayed a 50% effective concentration (EC50) in assay [1] of 0.15 µM. Also, half-maximal inhibition on BACE-1 enzyme (IC50) was put at 0.245 µM.

`O=C(Nc1nc2cc(-c3cc(F)cc(Cl)c3)ccc2[nH]1)c1cn2nc(OCCN3CCCCCC3)ccc2n1` [Example 53] showed an EC50 in assay [1] of 2.62 µM. This molecule also yielded an IC50 at BACE-1 enzyme of 0.216 µM.

The molecule `C[C@@H](O)[C@@H](C)Oc1ccc2nc(C(=O)Nc3nc4cc(-c5cc(F)cc(Cl)c5)ccc4[nH]3)cn2n1` [Example 146, 6-((1R,2R)-2-hydroxy-1-methyl-propoxy)-imidazo[1,2-b]pyridazine-2-carboxylic acid [5-(3-chloro-5-fluoro-phenyl)-1H-benzoimidazol-2-yl]-amide] displayed an EC50 in assay [1] of 0.11 µM. In addition, the IC50 against BACE-1 enzyme is 0.376 µM.

In assay [1], `O=C(Nc1nc2cc(-c3cc(F)cc(Cl)c3)ccc2[nH]1)c1cn2nc(OCC3(CO)CCC3)ccc2n1` [Example 132] had an EC50 of 0.47 µM. This molecule also came in with an IC50 against BACE-1 enzyme of 0.344 µM.

In turn, `O=C(Nc1nc2cc(-c3cccc(C(F)(F)F)c3)ccc2[nH]1)c1cn2nc(OCCn3cncn3)ccc2n1` [Example 45] displayed an EC50 in assay [1] of 1.31 µM. This molecule also had an IC50 on BACE-1 enzyme of 0.198 µM.

In assay [1], `CN(C)CCN(C)CCOc1ccc2nc(C(=O)Nc3nc4cc(-c5cccc(C(F)(F)F)c5)ccc4[nH]3)cn2n1` [Example 43] yielded a concentration giving a half-maximal response (EC50) of 2.88 µM. In addition, on BACE-1 enzyme, the IC50 worked out at 0.335 µM.

Molecule `CC1(C)CCC(c2ccc3[nH]c(NC(=O)c4cn5nc(N6CCC(O)CC6)ccc5n4)nc3c2)CC1` [Example 83] came in with an EC50 in assay [1] of 1.47 µM. Besides, the IC50 at BACE-1 enzyme was found to be 0.18 µM.

The molecule `CC[C@@H](O)COc1ccc2nc(C(=O)Nc3nc4cc(-c5cc(F)cc(Cl)c5)ccc4[nH]3)cn2n1` [Example 105] returned an EC50 in assay [1] of 1.27 µM. Besides, the IC50 against BACE-1 enzyme worked out at 0.064 µM.

`O=C(Nc1nc2cc(-c3ccc(Cl)c(C(F)(F)F)c3)ccc2[nH]1)c1cn2nc(OCCN3CCOCC3)ccc2n1` [Example 64] had an EC50 in assay [1] of 0.97 µM. The molecule also returned an IC50 at BACE-1 enzyme of 0.22 µM.

For `CN1CCN(CCOc2ccc3nc(C(=O)Nc4nc5cc(-c6cccc(OC(F)(F)F)c6)ccc5[nH]4)cn3n2)CC1` [Example 35], the EC50 in assay [1] was found to be 3.13 µM. The same molecule yielded an IC50 on BACE-1 enzyme of 0.315 µM.

`CC1(COc2ccc3nc(C(=O)Nc4nc5cc(-c6cc(F)cc(Cl)c6)ccc5[nH]4)cn3n2)COC1` [Example 98] showed an EC50 in assay [1] of 0.44 µM. The molecule also showed a half-inhibitory concentration (IC50) on BACE-1 enzyme of 0.248 µM.

`O=C(Nc1nc2cc(-c3cc(F)cc(Cl)c3)ccc2[nH]1)c1cn2nc(OCCCCO)ccc2n1` [Example 130] had an EC50 in assay [1] of 0.23 µM. This molecule showed an IC50 against BACE-1 enzyme of 0.169 µM.

Regarding `COc1ccc2nc(C(=O)Nc3nc4cc(-c5cc(F)cc(Cl)c5)ccc4[nH]3)cn2n1` [Example 7], in assay [1], it took 0.7 µM to reach a half-maximal effect (EC50). For the same molecule, the IC50 at BACE-1 enzyme is 0.225 µM.

In assay [1], `O=C(Nc1nc2cc(-c3cccc(C(F)(F)F)c3)ccc2[nH]1)c1cn2nc(OCCN3CCCCCC3)ccc2n1` [Example 40] yielded an EC50 of 2.68 µM. For the same molecule, it took 0.307 µM to reach half-maximal inhibition against BACE-1 enzyme (IC50).

Consider `C[C@@H](O)COc1ccc2nc(C(=O)Nc3nc4cc(-c5ccc(C(F)(F)F)c(Cl)c5)ccc4[nH]3)cn2n1` [Example 122, 6-((R)-2-hydroxy-propoxy)-imidazol[1,2-b]pyridazine-2-carboxylic acid [5-(3-chloro-4-trifluoromethyl-phenyl)-1H-benzoimidazol-2-yl]-amide], for which the concentration giving a half-maximal response (EC50) in assay [1] turned out to be 0.1 µM. At BACE-1 enzyme, this molecule showed an IC50 of 0.371 µM.

In turn, `C[C@@H](O)CCOc1ccc2nc(C(=O)Nc3nc4cc(-c5cc(F)cc(Cl)c5)ccc4[nH]3)cn2n1` [Example 118] returned an EC50 in assay [1] of 1.06 µM. On BACE-1 enzyme, the IC50 amounted to 0.318 µM.

As for `CC1(C)CCC(c2ccc3[nH]c(NC(=O)c4cn5nc(N6CCCC(O)C6)ccc5n4)nc3c2)CC1` (stereo not drawn) [Example 84], the EC50 in assay [1] was found to be 1.71 µM. The molecule also returned an IC50 against BACE-1 enzyme of 0.191 µM.

In assay [1], `O=C(Nc1nc2cc(-c3cccc(OC(F)(F)F)c3)ccc2[nH]1)c1cn2nc(OC[C@H]3CC[C@@H](CO)O3)ccc2n1` [Example 134] displayed an EC50 of 0.75 µM. The IC50 against BACE-1 enzyme was determined as 0.203 µM.

In assay [1], `O=C(Nc1nc2cc(-c3cc(F)cc(Cl)c3)ccc2[nH]1)c1cn2nc(OCCCO)ccc2n1` [Example 113] came in with an EC50 of 1.71 µM. Moreover, it took 0.528 µM to reach half-maximal inhibition on BACE-1 enzyme (IC50).

In assay [1], `O=C(Nc1nc2cc(-c3cc(F)cc(Cl)c3)ccc2[nH]1)c1cn2nc(OC[C@@H]3CCCO3)ccc2n1` [Example 147, 6-[(S)-1-(Tetrahydro-furan-2-yl)methoxy]-imidazol[1,2-b]pyridazine-2-carboxylic acid [5-(3-chloro-5-fluoro-phenyl)-1H-benzoimidazol-2-yl]-amide] showed an EC50 of 0.27 µM. Moreover, the midpoint of inhibition against BACE-1 enzyme, the IC50, lay at 0.207 µM.

`O=C(Nc1nc2cc(-c3cccc(OC(F)(F)F)c3)ccc2[nH]1)c1cn2nc(OCCN3CCCC3=O)ccc2n1` [Example 31] gave an EC50 in assay [1] of 2.5 µM. This molecule yielded an IC50 against BACE-1 enzyme of 0.313 µM.

Take `CN1CCN(CCOc2ccc3nc(C(=O)Nc4nc5cc(-c6cccc(C(F)(F)F)c6)ccc5[nH]4)cn3n2)CC1` [Example 41]: the response in assay [1] was half-maximal at 2.62 µM (EC50). This molecule also gave an IC50 against BACE-1 enzyme of 0.232 µM.

In assay [1], `CC(C)[C@@H](O)COc1ccc2nc(C(=O)Nc3nc4cc(-c5cc(F)cc(Cl)c5)ccc4[nH]3)cn2n1` [Example 107] registered a half-maximal effective concentration (EC50) of 0.79 µM. On BACE-1 enzyme, half-maximal inhibition (IC50) was put at 0.215 µM.
